Data reported in paper PMC5701185, “Evidence for PII with NAGK interaction that regulates Arg synthesis in the microalga Myrmecia incisa in response to nitrogen starvation” (Scientific Reports, 2017).
Blank lines part the entries; values can stand above or below the compound they belong to.

Assays:
MiPII with MiNAGK [1] = biological target: T1, MiPII with MiNAGK (Lobosphaera incisa, UniProt A0A2R4H197); experiment: hydroxamate-Fe([…]+) NAGK assay, […] nm; type: biochemical; conditions: read-out: % inhibition at 1 mM
T1 construct: gene glnB; same proteins as P2; effector site on PII (209-aa precursor, 52-aa signal peptide removed, N-terminal His-tag kept, 21-kD band); read-out NAGK activity; with Acetylglutamate kinase, chloroplastic
T1 sequence (A0A2R4H197 53-209): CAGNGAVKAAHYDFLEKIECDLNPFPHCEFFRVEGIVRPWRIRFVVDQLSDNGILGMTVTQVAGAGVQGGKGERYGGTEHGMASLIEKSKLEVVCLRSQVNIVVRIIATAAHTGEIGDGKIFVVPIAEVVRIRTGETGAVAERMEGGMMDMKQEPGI
T1 sequence (A0A2R4H194 60-359 partner): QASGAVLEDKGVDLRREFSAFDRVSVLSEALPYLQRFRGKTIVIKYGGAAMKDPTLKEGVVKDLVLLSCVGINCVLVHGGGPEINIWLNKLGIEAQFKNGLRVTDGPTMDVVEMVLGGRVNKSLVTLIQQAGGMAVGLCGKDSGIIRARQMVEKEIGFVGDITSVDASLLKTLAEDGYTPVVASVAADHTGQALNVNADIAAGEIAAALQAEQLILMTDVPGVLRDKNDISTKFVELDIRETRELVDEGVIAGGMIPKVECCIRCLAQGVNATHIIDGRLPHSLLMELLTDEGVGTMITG

MiPII with MiNAGK [2] = biological target: T1, MiPII with MiNAGK; experiment: hydroxamate-Fe([…]+) NAGK assay, […] nm; type: biochemical; conditions: read-out: half-maximal effective concentration
[3] = biological target: recombinant MiPII fused to the His-tag (pET-PII) (Myrmecia incisa); experiment: co-IP; purified recombinant MiPII (200 ug) and MiNAGK (400 ug) in 1 mL 50 mM Tris-HCl pH 7.5, 100 mM KCl, with ATP (3 mM) and Mg2+ (6 mM), with or without 2-OG (5 mM); 1 h at room temperature; precipitated with rabbit anti-MiPII polyclonal antibody and protein A Sepharose; SDS-PAGE, Coomassie staining, band intensity by ImageJ
Chain of recombinant MiPII fused to the His-tag (pET-PII) (Myrmecia incisa) (main, as listed by the source): as the sequence (A0A2R4H197 53-209) above

[4] = biological target: recombinant MiNAGK fused to the His-tag (pET-NAGK) (Myrmecia incisa)
Chain of recombinant MiNAGK fused to the His-tag (pET-NAGK) (Myrmecia incisa) (main, as listed by the source): as the sequence (A0A2R4H194 60-359 partner) above

inhibition at 1000 µM (MiPII with MiNAGK [1]): ~30%
Compound: O=C(O)CCC(=O)C(=O)O [2-OG]

EC50 (MiPII with MiNAGK [2]): ~3 mM
Compound: NC(=O)CC[C@H](N)C(=O)O [Gln]

intensity of the stained MiNAGK band in the precipitate with 2-OG relative to without 2-OG [3]: 0.65 times
Compound: recombinant MiNAGK fused to the His-tag (pET-NAGK) (enzyme)

specific activity of recombinant MiNAGK with MiPII (10 ug) and Gln (10 mM), 2-OG from 0 to 4 mM; value at 1 mM 2-OG [4]: 30%
Compound: recombinant MiPII fused to the His-tag (pET-PII) (natural protein)
